Activity calls are given as the source filed them. No cut-off for these calls is given here.
Legend:
[1] = Selectivity index, ratio of IC50 for human MCF10A cells assessed as reduction in cell growth measured after 48 hrs by CCK8 assay to IC50 for human HL60 cells assessed as reduction in cell growth measured after 48 hrs by CCK8; assay type: toxicity; settings: MCF10A cells versus HL60 cells, read-out: Ratio IC50
A549 [2] = assay: Induction of apoptosis in human A549 cells assessed as late apoptotic cells at 40 uM measured after 24 hrs by Annexin V-FITC/propidium iodide staining based FACSClibur flow cytometry analysis (reference value: 2.32 %); assay type: functional
HCT-116 [3] = assay: Antitumor activity against human HCT116 cells xenografted in ip dosed BALB/c nude mouse assessed as tumor growth inhibition administered every 3 days for 21 days and measured every second day for 21 days during compound dosing by digital caliper method; assay type: functional, organism-based
HCT-116 [4] = assay: Antiproliferative activity against human HCT116 cells assessed as reduction in cell growth measured after 48 hrs by CCK8 assay; assay type: functional, cell-based; settings: HCT-116, 48 h
[5] = Acute toxicity in iv dosed KM mouse administered as single dose measured for 14 days; assay type: organism-based; settings: in vivo
Histone deacetylase 1 = Histone deacetylase 1 (Homo sapiens, UniProt Q13547); assay: Inhibition of HDAC1 (unknown origin) at 10 uM using Boc-Lys(Ac)-pNA as substrate preincubated for 20 mins followed by substrate addition and further incubated for 90 mins by fluorescence assay relative to control
Histone deacetylase 1, sequence (Q13547 whole entry): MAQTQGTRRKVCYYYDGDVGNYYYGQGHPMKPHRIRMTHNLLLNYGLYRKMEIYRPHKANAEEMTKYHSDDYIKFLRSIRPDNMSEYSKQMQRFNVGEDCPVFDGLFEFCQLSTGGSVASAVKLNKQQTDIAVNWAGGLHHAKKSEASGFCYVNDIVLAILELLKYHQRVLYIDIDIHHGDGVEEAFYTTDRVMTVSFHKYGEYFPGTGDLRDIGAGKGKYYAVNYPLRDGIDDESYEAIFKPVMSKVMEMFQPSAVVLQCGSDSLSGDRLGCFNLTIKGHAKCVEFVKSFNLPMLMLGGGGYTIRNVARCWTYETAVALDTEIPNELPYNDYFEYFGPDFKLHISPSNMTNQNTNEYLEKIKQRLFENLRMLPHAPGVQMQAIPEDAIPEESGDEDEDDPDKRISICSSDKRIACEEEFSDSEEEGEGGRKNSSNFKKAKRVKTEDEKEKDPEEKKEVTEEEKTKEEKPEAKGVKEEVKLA

HCT-116 [6] = assay: Antitumor activity against human HCT116 cells xenografted in BALB/c nude mouse assessed as tumor growth inhibition at 25 mg/kg, ip administered every 3 days for 21 days and measured every second day for 21 days during compound dosing by digital caliper method relative to control; assay type: functional; settings: HCT-116, ip, read-out: TGI
MCF7 = assay: Antiproliferative activity against human MCF7 cells assessed as reduction in cell growth measured after 48 hrs by CCK8 assay; assay type: functional, cell-based; settings: MCF7, 48 h
[7] = Selectivity index, ratio of IC50 for human MCF10A cells assessed as reduction in cell growth measured after 48 hrs by CCK8 assay to IC50 for human A549 cells assessed as reduction in cell growth measured after 48 hrs by CCK8; assay type: toxicity; settings: MCF10A cells versus A549 cells, read-out: Ratio IC50
HCT-116 [8] = assay: Antitumor activity against human HCT116 cells xenografted in BALB/c nude mouse assessed as tumor growth inhibition at 50 mg/kg, ip administered every 3 days for 21 days and measured every second day for 21 days during compound dosing by digital caliper method relative to control; assay type: functional; settings: HCT-116, ip, read-out: TGI
A549 [9] = assay: Induction of apoptosis in human A549 cells assessed as early apoptotic cells at 40 uM measured after 48 hrs by Annexin V-FITC/propidium iodide staining based FACSClibur flow cytometry analysis (reference value: 0.40 %); assay type: functional
[10] = Drug concentration in plasma of Sprague-Dawley rat at 2 mg/kg, iv measured after 5 mins by LC-MS/MS analysis; assay type: ADME, organism-based
[11] = Oral bioavailability in Sprague-Dawley rat at 20 mg/kg measured up to 24 hrs by LC-MS/MS analysis; assay type: ADME, organism-based; settings: in vivo
MCF-10A = assay: Cytotoxicity against human MCF10A cells assessed as reduction in cell growth measured after 48 hrs by CCK8 assay; assay type: cell-based
A549 [12] = assay: Induction of apoptosis in human A549 cells assessed as induction of caspase-3 activation at 40 uM using Ac-DEVD-pNA as substrate preincubated for 24 hrs followed by substrate addition and measured after 2 hrs by microplate reader assay; assay type: functional, cell-based
A549 [13] = assay: Induction of apoptosis in human A549 cells assessed as early apoptotic cells at 40 uM measured after 24 hrs by Annexin V-FITC/propidium iodide staining based FACSClibur flow cytometry analysis (reference value: 0.35 %); assay type: functional
A549 [14] = assay: Induction of apoptosis in human A549 cells assessed as late apoptotic cells at 40 uM measured after 48 hrs by Annexin V-FITC/propidium iodide staining based FACSClibur flow cytometry analysis (reference value: 3.63 %); assay type: functional
[15] = target: T1, Peptide deformylase, mitochondrial (Homo sapiens, UniProt Q9HBH1); assay: Inhibition of human PDF expressed in Escherichia coli BL21 pLysS using formyl-Met-Ala-His-Ala peptide as substrate measured after 1 hr by fluorescamine-based fluorescence assay
T1 sequence (Q9HBH1 whole entry): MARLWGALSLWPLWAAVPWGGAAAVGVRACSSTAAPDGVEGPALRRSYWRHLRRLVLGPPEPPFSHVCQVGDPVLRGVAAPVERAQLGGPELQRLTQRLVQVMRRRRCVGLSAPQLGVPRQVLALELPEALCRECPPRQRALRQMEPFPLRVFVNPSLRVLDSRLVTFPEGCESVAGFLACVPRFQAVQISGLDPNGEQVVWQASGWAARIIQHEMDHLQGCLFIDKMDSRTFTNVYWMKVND

A549 [16] = assay: Antiproliferative activity against human A549 cells assessed as reduction in cell growth measured after 48 hrs by CCK8 assay; assay type: functional, cell-based; settings: A549, 48 h
[17] = Toxicity in KM mouse assessed as behavioral changes at <262 mg/kg, ip administered as single dose measured daily for 14 days; assay type: organism-based; settings: in vivo, 336 h
[18] = Toxicity in BALB/c nude mouse xenografted with human HCT116 cells assessed as adverse effect at 25 to 50 mg/kg, ip administered every 3 days for 21 days; assay type: organism-based, HCT-116; settings: in vivo
HL-60 = assay: Antiproliferative activity against human HL60 cells assessed as reduction in cell growth measured after 48 hrs by CCK8 assay; assay type: functional, cell-based; settings: HL-60, 48 h
A549 [19] = assay: Induction of apoptosis in human A549 cells assessed as live cells at 40 uM measured after 24 hrs by Annexin V-FITC/propidium iodide staining based FACSClibur flow cytometry analysis (reference value: 97 %); assay type: functional
SJSA-1 = assay: Antiproliferative activity against human SJSA1 cells assessed as reduction in cell growth measured after 48 hrs by CCK8 assay; assay type: functional, cell-based; settings: SJSA-1, 48 h
[20] = Terminal half life in Sprague-Dawley rat at 2 mg/kg, iv measured up to 24 hrs by LC-MS/MS analysis; assay type: ADME, organism-based; settings: in vivo, read-out: beta t1/2 (converted)

With `O=C(C[C@@H](CC1CCCC1)C(=O)N1CC2(CC2)C[C@H]1c1nc(-c2ccc(F)cc2C(F)(F)F)no1)NO` the selectivity ratio at 48 h [1] was 9, the Activity (A549 [2]) was 7.07% and the TGI (HCT-116 [3]) was “Dose-dependent effect”. It also gave an IC50 (HCT-116 [4]) of 1980 nM, an LD50 at 336 h [5] of 287 to 452 mg/kg and an inhibition (Histone deacetylase 1) of -0.35%. It also gave an inhibition in vivo at 25 mg/kg (HCT-116 [6]) of 64%, an IC50 (MCF7) of 4650 nM and a selectivity ratio at 48 h [7] of 9. For the same compound, the inhibition in vivo at 50 mg/kg (HCT-116 [8]) was 72.5%, the Activity (A549 [9]) was 12.6% and the concentration at 5 min [10] was 136 ng/mL. For the same compound, the F [11] was 23.5%, the IC50 (MCF-10A) was 18100 nM and the Activity (A549 [12]) was “inactive”. For the same compound, the Activity (A549 [13]) was 4.03%, the Activity (A549 [14]) was 5.55% and the IC50 [15] was 4.11 nM. For the same compound, the IC50 (A549 [16]) was 2580 nM, the Activity [17] was “Non-Toxic” and the Activity [18] was “Non-Toxic”. The IC50 (HL-60) was 2020 nM, the Activity (A549 [19]) was 87.8% and the IC50 (SJSA-1) was 1940 nM. It also gave a half-life [20] of 3.7 h.
